What was measured:
[1] = biological target: Vascular endothelial growth factor receptor 2 (Homo sapiens, UniProt P35968); assay type: cell-based
[2] = test system: A10; assay: Induction of microtubule depolymerization in rat A10 cells after 18 hrs by indirect immunofluorescence method; assay type: functional, cell-based; details: A10, 18 h
[3] = test system: Chorioallantoic membrane; assay: Antiangiogenic activity in Leghorn chicken embryo chorioallantoic membrane after 40 hrs by microscopic analysis; assay type: functional, tissue-based; details: Gallus gallus
[4] = test system: A-431; assay: Cytotoxicity against human A431 cells over-expressing EGFR; assay type: functional, cell-based
[5] = biological target: Epidermal growth factor receptor (Homo sapiens, UniProt P00533); assay type: cell-based
Epidermal growth factor receptor, sequence (P00533 whole entry): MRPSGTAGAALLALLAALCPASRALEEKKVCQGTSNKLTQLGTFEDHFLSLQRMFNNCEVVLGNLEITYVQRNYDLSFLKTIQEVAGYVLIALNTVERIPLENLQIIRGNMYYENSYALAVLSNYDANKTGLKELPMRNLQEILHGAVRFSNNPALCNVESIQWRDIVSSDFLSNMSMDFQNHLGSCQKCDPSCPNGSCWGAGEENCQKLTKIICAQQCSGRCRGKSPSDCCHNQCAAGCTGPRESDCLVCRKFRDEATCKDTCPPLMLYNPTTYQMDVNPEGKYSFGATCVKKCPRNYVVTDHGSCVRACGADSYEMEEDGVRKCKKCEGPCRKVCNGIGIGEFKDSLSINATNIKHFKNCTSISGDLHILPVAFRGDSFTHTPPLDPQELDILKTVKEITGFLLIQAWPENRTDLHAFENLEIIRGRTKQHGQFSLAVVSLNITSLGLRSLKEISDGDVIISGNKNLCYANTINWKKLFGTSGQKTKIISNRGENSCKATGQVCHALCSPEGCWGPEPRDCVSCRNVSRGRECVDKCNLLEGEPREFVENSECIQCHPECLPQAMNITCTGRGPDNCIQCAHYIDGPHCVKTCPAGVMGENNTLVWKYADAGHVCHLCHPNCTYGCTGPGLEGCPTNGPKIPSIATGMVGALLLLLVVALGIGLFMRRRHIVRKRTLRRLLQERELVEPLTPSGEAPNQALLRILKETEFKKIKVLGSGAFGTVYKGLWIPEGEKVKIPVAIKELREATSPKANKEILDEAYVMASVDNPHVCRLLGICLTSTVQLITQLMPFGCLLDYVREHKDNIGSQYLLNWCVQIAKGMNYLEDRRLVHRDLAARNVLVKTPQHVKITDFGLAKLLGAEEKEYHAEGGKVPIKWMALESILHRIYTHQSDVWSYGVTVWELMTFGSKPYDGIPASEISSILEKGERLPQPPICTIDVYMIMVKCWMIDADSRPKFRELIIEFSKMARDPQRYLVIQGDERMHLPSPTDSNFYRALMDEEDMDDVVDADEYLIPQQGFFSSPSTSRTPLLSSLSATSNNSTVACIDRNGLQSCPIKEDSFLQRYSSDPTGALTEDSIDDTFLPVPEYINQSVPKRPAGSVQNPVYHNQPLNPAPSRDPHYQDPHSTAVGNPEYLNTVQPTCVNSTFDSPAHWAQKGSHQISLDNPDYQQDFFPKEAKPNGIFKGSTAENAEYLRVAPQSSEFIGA

[6] = biological target: Platelet-derived growth factor receptor beta (Homo sapiens, UniProt P09619); assay: Inhibition of PDGF-BB-induced PDGFRbeta activation in human SH-SY5Y cells pretreated for 60 mins followed by PDGF-BB addition and measured after 10 mins by ELISA; assay type: cell-based
Platelet-derived growth factor receptor beta, sequence (P09619 whole entry): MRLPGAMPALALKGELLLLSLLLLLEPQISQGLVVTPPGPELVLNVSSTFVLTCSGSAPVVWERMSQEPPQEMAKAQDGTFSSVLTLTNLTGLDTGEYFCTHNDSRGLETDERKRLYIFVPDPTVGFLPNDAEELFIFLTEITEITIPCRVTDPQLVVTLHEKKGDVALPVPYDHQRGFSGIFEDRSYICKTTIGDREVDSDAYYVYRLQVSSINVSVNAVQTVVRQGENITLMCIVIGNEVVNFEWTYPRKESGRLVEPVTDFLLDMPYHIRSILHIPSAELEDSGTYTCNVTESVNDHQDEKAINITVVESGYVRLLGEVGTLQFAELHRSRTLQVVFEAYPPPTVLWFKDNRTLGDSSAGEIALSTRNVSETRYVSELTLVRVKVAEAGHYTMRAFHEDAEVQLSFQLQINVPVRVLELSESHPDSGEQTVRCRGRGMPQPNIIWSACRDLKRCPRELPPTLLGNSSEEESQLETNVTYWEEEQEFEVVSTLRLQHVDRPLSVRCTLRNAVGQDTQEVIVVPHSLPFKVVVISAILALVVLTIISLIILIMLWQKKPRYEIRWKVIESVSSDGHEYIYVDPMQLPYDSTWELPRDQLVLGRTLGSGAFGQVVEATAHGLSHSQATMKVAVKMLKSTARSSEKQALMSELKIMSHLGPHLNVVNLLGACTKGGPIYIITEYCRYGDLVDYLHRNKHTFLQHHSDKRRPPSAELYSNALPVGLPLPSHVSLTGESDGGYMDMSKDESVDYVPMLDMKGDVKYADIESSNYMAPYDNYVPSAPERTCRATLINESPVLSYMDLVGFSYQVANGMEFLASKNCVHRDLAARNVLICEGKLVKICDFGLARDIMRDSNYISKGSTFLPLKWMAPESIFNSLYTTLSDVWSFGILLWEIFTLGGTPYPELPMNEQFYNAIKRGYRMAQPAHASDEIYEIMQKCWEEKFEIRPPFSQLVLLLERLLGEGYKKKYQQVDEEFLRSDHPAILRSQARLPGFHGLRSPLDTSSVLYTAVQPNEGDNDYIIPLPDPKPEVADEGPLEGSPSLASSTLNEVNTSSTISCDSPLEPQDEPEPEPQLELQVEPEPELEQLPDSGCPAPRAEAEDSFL

[7] = test system: HeLa; assay: Antiproliferative activity against human HeLa cells after 72 hrs by sulforhodamine B assay; assay type: functional, cell-based
[8] = organism: Bos taurus; assay: Inhibition of [3H]colchicine binding to bovine brain tubulin at 5 uM measured after 10 mins relative to control
[9] = test system: SK-OV-3; assay: Antiproliferative activity against human SKOV3 cells after 72 hrs by sulforhodamine B assay; assay type: functional, cell-based; details: SK-OV-3, 72 h
[10] = Resistance index, ratio of IC50 for human HeLa cells to IC50 for human wild-type Hela-beta3 cells; assay type: functional
[11] = test system: MDA-MB-435; assay: Antiproliferative activity against human MDA-MB-435 cells after 72 hrs by sulforhodamine B assay; assay type: functional, cell-based; details: MDA-MB-435, 72 h
[12] = Resistance index, ratio of IC50 for human SKOV3-MDR1-M6/6 cells to IC50 for human SKOV3 cells; assay type: functional
[13] = Antiproliferative activity against human wild-type Hela-beta3 cells after 72 hrs by sulforhodamine B assay; assay type: functional
[14] = Antiproliferative activity against human SKOV3-MDR1-M6/6 cells after 72 hrs by sulforhodamine B assay; assay type: functional; details: SKOV3-MDR1-M6/6, 72 h
[15] = organism: Bos taurus; assay: Inhibition of [3H]colchicine binding to bovine brain tubulin at 1 uM measured after 10 mins relative to control
[16] = Inhibition of bovine brain tubulin assembly pretreated for 15 mins followed by GTP addition by spectrophotometric method; parameters: species or system Bos taurus

Vascular endothelial growth factor receptor 2, sequence (P35968 whole entry): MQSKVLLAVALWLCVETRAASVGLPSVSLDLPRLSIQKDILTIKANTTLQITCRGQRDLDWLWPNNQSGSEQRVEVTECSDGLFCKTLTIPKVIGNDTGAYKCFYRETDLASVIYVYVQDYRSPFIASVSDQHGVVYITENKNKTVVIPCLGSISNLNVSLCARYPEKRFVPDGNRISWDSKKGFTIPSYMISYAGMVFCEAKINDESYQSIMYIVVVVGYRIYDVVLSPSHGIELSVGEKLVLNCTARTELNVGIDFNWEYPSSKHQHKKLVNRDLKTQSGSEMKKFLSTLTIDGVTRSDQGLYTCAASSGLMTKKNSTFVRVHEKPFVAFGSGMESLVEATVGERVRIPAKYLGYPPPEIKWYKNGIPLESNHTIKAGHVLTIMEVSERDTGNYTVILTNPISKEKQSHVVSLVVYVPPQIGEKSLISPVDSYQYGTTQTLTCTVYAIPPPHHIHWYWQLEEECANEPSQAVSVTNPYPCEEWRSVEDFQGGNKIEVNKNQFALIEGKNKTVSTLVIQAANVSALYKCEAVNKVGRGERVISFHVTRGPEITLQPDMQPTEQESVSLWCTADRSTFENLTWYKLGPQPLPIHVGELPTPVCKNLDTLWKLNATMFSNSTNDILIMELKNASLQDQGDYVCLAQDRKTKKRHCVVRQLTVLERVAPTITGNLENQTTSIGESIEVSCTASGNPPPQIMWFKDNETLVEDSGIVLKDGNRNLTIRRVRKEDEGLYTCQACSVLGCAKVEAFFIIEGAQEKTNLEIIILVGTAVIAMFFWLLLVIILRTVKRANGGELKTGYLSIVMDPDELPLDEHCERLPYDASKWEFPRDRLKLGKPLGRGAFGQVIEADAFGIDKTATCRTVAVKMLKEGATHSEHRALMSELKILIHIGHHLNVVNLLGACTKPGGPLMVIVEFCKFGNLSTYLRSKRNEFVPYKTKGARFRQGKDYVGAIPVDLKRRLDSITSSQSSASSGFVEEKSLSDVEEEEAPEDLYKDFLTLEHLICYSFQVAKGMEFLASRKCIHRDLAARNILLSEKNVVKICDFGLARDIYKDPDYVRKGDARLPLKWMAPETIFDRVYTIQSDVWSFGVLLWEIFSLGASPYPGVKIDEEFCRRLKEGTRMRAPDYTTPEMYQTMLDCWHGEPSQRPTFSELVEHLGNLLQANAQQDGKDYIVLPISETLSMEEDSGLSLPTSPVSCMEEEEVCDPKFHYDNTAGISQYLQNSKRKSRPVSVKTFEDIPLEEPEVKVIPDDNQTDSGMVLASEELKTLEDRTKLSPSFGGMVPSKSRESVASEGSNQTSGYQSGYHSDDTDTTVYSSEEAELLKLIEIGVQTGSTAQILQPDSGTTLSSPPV

IC50 [1] [nM] | EC50 [2] [nM] | IC50 [5] [nM] | IC50 [6] [nM] | IC50 [7] [nM] | inhibition [8] [%] | IC50 [9] [nM] | IC50 [11] [nM] | inhibition [15] [%] | IC50 [16] [nM] | SMILES | IC50 [3] [nM] | IC50 [4] [nM] | Ratio IC50 [10] | Ratio IC50 [12] | IC50 [13] [nM] | IC50 [14] [nM]
> 200 | > 10000 | > 200 | > 200 |  |  |  |  |  |  | Cc1coc2ncnc(N(C)c3ccc([N+](=O)[O-])cc3)c12 | 1060 | 433 |  |  |  | 
15.6 | 140 | 3.1 | 63 | 58 | 86 | 70 | 44 | 59 | 1100 | Cc1coc2ncnc(N(C)c3ccc(N(C)C)cc3)c12 | 653 | 1 | 1 | 1.3 | 60 | 91
> 200 | > 10000 | > 200 | > 200 |  |  |  |  |  |  | Cc1coc2ncnc(Nc3ccc(N(C)C)cc3)c12 |  |  |  |  |  | 
13.6 |  | 7.2 | 62.2 |  |  |  |  |  |  | CSc1ccc(N(C)c2ncnc3occ(C)c23)cc1 | 520 | 2.9 |  |  |  | 

Reference: ChEMBL document CHEMBL4229524, “Design, synthesis and preclinical evaluation of 5-methyl-N4-aryl-furo[2,3-d]pyrimidines as single agents with combination chemotherapy potential” (Bioorg Med Chem Lett, 2018)
